Like-named read-outs stand apart in the source and are kept apart here. No end group written: not given here.
Tests used:
[1] = target: mouse NaV1.7 (Mus musculus, UniProt Q62205); assay: cell-based; settings: SEM
[2] = target: human NaV1.6 (Homo sapiens, UniProt Q9UQD0); assay: cell-based; settings: SEM
[3] = target: human NaV1.8 (Homo sapiens, UniProt Q9Y5Y9); assay: cell-based
[4] = target: human NaV1.9 (Homo sapiens, UniProt Q9UI33); assay: cell-based
[5] = target: human NaV1.7 (Homo sapiens, UniProt Q15858); assay: cell-based; settings: SEM
[6] = test system: HEK293 cells; settings: 1 h
[7] = test system: blowflies (L. caesar); set-up: species or system Lucilia caesar; settings: in vivo
[8] = test system: human erythrocytes; settings: red cells of human, 1 h
[9] = test system: C57BL/6J mice; settings: mouse, in vivo

Chain of human NaV1.8 (Q9Y5Y9 whole entry): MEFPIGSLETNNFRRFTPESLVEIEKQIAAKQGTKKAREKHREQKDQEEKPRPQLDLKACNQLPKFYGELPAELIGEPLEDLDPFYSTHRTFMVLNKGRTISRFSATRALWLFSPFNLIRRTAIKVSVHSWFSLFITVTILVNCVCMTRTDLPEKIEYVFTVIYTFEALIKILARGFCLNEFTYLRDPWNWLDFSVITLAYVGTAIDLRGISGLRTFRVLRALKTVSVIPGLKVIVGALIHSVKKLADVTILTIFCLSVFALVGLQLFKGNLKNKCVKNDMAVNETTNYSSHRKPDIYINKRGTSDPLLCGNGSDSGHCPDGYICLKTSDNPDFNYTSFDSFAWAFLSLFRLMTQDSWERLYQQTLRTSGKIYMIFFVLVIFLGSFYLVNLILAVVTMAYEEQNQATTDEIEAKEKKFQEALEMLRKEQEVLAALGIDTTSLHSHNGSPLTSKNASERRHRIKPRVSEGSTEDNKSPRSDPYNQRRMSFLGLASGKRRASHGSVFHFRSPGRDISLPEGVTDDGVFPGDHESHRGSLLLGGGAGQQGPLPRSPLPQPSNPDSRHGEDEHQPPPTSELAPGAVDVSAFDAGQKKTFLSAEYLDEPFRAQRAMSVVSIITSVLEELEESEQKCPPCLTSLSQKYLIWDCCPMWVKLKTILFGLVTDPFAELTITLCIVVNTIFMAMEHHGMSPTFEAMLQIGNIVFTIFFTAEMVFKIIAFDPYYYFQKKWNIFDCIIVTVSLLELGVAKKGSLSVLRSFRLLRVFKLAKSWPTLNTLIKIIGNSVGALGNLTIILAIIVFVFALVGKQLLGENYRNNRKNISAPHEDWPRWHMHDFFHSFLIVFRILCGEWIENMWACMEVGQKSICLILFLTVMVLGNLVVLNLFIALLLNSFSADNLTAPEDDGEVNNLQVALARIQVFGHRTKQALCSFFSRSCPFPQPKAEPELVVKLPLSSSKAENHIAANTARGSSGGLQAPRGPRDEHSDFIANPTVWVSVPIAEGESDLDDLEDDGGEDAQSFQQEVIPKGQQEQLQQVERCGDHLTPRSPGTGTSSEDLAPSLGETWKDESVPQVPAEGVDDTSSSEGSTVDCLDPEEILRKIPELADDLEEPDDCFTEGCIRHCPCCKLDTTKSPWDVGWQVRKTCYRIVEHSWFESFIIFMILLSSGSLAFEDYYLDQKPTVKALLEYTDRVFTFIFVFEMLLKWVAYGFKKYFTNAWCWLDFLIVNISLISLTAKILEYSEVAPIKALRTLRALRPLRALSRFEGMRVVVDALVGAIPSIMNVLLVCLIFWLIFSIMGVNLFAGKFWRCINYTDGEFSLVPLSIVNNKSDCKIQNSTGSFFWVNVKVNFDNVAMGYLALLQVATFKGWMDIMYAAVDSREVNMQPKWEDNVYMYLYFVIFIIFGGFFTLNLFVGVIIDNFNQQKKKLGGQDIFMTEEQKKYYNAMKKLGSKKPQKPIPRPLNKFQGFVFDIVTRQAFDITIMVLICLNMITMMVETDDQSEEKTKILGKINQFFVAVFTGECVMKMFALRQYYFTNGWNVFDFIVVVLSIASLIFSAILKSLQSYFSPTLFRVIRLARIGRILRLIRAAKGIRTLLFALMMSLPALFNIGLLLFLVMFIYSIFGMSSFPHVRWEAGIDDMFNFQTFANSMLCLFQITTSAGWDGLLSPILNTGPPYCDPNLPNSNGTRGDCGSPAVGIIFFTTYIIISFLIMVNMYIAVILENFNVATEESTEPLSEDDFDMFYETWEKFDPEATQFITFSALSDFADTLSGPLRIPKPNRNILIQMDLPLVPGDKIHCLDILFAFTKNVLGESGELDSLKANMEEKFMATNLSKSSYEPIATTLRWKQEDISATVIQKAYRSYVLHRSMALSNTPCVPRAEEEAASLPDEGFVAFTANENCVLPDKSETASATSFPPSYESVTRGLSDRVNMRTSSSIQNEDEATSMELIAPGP
Chain of human NaV1.9 (Q9UI33 whole entry): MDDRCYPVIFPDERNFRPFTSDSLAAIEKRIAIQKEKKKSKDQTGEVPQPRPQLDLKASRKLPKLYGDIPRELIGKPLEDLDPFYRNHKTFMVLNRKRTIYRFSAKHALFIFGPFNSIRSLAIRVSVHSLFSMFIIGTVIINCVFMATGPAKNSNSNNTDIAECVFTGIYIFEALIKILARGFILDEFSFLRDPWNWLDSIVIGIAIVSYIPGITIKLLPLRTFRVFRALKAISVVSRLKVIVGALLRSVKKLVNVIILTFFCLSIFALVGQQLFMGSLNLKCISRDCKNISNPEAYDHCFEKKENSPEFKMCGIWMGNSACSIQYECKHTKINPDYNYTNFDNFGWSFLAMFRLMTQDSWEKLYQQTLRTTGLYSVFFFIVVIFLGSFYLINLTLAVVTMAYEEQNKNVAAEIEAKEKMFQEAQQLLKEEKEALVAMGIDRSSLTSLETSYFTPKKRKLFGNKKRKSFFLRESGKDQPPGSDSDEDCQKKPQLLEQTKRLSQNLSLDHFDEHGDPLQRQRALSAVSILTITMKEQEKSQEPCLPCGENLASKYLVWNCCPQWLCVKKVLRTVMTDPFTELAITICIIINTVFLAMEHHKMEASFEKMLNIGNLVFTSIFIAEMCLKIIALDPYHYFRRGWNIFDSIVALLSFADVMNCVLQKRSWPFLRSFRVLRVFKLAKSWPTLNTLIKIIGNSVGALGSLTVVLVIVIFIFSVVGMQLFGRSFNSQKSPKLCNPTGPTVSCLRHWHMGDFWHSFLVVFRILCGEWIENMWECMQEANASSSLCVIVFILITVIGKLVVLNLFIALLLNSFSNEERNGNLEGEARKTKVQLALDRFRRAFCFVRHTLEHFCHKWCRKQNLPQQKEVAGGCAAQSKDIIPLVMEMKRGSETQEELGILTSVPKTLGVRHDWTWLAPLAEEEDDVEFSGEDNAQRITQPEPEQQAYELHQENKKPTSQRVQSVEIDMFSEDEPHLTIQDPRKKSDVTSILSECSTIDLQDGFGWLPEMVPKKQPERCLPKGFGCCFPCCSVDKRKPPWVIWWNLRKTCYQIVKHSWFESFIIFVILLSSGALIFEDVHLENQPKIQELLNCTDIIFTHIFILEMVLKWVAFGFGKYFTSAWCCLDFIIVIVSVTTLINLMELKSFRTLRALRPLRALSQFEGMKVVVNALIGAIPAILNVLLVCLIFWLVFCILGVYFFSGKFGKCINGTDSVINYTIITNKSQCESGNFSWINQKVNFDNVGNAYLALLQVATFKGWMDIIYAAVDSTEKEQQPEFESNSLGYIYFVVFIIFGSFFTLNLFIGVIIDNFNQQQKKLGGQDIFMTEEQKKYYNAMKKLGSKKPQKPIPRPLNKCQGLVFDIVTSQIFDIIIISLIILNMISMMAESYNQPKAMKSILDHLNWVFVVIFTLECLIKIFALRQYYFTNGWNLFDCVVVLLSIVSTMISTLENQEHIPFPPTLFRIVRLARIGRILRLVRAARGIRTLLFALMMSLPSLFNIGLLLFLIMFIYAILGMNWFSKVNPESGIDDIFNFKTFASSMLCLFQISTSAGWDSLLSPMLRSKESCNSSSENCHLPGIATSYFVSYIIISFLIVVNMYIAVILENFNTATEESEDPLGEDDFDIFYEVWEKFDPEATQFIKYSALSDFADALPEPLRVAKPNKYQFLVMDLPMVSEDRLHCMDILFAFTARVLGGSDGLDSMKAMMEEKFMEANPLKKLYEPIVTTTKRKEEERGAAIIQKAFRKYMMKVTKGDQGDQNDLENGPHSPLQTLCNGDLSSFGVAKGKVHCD

ALPALPLLMFLFTLPALQHWIEKNWIN-NH2 [Pm2a]
EC50 [1]: 102 ± 18 nM
EC50 [2]: 176 ± 56 nM
EC50 ([3]; SEM): 2600 ± 700 nM
EC50 [4]: < 1000 nM
EC50 [5]: 154 ± 17 nM

GIFSALKTLGKILLPVILPTVAEKIKEKV-NH2 [Pm6a]
median cytotoxic concentration (CC50) [6]: 465 ± 359 nM
kind of paralysis in blowflies [7]: rapid paralysis
reversibility of paralysis in blowflies [7]: irreversible
median paralytic dose PD50[1 h] ([7]; SEM): 9.9 ± 0.4 nmol/g
median hemolytic concentration (HC50) [8]: 618 ± 148 nM
spontaneous nocifensive behaviors in mice [9]: did not cause nociception in mice

GLPLLALLFSLPVLQHWIEKNWIN-NH2 [Pm1a]
EC50 [1]: 352 ± 58 nM
EC50 [2]: 285 ± 47 nM
EC50 [3]: > 10000 nM
EC50 [4]: > 1000 nM
EC50 [5]: 403 ± 96 nM

From PMC10821600 (The Journal of Biological Chemistry, 2023)
